# Experiments:
# Format in all cases: in vivo
# kochia (Kochia scoparia) [1] = assay: Test A preemergence, kochia; conditions: 0 to 100 scale; for Kochia plant response rating: 0 is no effect, 100 is complete control
# Method in brief: (§1)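 Compound, in a non-phytotoxic solvent blend containing surfactant, is sprayed onto soil immediately after sowing or onto young plants (one- to two-leaf, 2–10 cm). After roughly 10 d under greenhouse conditions, injury is judged by eye relative to untreated plants on a 0–100 control scale.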
# [2] = system: barnyardgrass (Echinochloa crus-galli); assay: Test B flooded paddy test, barnyardgrass; conditions: Flood, 250 g ai/ha, applied to paddy water, 2-leaf stage, visual evaluation after 13 to 15 d
# Method in brief: (§2)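 Pots flooded to 3 cm above the soil when treated, with test compound added straight to the water and the flood maintained. Treated plants were at the 2-leaf stage and stayed 13–15 d in greenhouse. Response versus untreated controls scored visually from 0 (no effect) to 100 (complete control).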
# rice (Oryza sativa) = assay: Test B flooded paddy test, rice; conditions: Flood, 250 g ai/ha, applied to paddy water, 2-leaf stage, visual evaluation after 13 to 15 d
# Method in brief: as §2
# [3] = system: pigweed (Amaranthus retroflexus); assay: Test A preemergence, pigweed; conditions: 0 to 100 scale; for Pigweed plant response rating: 0 is no effect, 100 is complete control
# Method in brief: as §1
# [4] = system: barnyardgrass (Echinochloa crus-galli); assay: Test A preemergence, barnyardgrass; conditions: 0 to 100 scale; for Barnyardgrass plant response rating: 0 is no effect, 100 is complete control
# Method in brief: as §1
# [5] = system: ragweed (common ragweed, Ambrosia elatior); assay: Test A postemergence, ragweed; conditions: 0 to 100 scale
# Method in brief: as §1
# [6] = system: barnyardgrass (Echinochloa crus-galli); assay: Test A postemergence, barnyardgrass; conditions: 0 to 100 scale
# Method in brief: as §1
# [7] = system: ducksalad (Heteranthera limosa); assay: Test B flooded paddy test, ducksalad; conditions: Flood, 250 g ai/ha, applied to paddy water, 2-leaf stage, visual evaluation after 13 to 15 d
# Method in brief: as §2
# [8] = system: foxtail, giant (Setaria faberii); assay: Test A postemergence, giant foxtail; conditions: 0 to 100 scale
# Method in brief: as §1
# [9] = system: ryegrass, Italian (Lolium multiflorum); assay: Test A preemergence, Italian ryegrass; conditions: 0 to 100 scale; for Ryegrass, Italian plant response rating: 0 is no effect, 100 is complete control
# Method in brief: as §1
# [10] = system: blackgrass (Alopecurus myosuroides); assay: Test A postemergence, blackgrass; conditions: 0 to 100 scale
# Method in brief: as §1
# [11] = system: pigweed (Amaranthus retroflexus); assay: Test A postemergence, pigweed; conditions: 0 to 100 scale
# Method in brief: as §1
# [12] = system: ryegrass, Italian (Lolium multiflorum); assay: Test A postemergence, Italian ryegrass; conditions: 0 to 100 scale
# Method in brief: as §1
# [13] = system: wheat (Triticum aestivum); assay: Test A postemergence, wheat; conditions: 0 to 100 scale
# Method in brief: as §1
# corn (Zea mays) = assay: Test A postemergence, corn; conditions: 0 to 100 scale
# Method in brief: as §1
# [14] = system: ragweed (common ragweed, Ambrosia elatior); assay: Test A preemergence, ragweed; conditions: 0 to 100 scale; for Ragweed plant response rating: 0 is no effect, 100 is complete control
# Method in brief: as §1
# [15] = system: galium (catchweed bedstraw, Galium aparine); assay: Test A postemergence, galium; conditions: 0 to 100 scale
# Method in brief: as §1
# [16] = system: sedge, umbrella (small-flower umbrella sedge, Cyperus difformis); assay: Test B flooded paddy test, umbrella sedge; conditions: Flood, 250 g ai/ha, applied to paddy water, 2-leaf stage, visual evaluation after 13 to 15 d
# Method in brief: as §2
# [17] = system: foxtail, giant (Setaria faberii); assay: Test A preemergence, giant foxtail; conditions: 0 to 100 scale; for Foxtail, Giant plant response rating: 0 is no effect, 100 is complete control
# Method in brief: as §1
# kochia (Kochia scoparia) [18] = assay: Test A postemergence, kochia; conditions: 0 to 100 scale
# Method in brief: as §1
# [19] = 125 g ai/ha, 0 no effect, 100 complete control
# [20] = 500 g ai/ha, 0 no effect, 100 complete control
# [21] = 500 g ai/ha, 0 is no effect, 100 is complete control
smiles,measurement,setting,value
CC(Nc1ncc(C(F)(F)F)c(N)n1)c1csc2ccccc12 (stereo not drawn) [Compound 40],Kochia plant response rating,kochia (Kochia scoparia) [1]; 125 g ai/ha,60
same,"Plant response rating, Kochia",kochia (Kochia scoparia) [1]; 500 g ai/ha,60
same,"Plant response rating, Barnyardgrass (0 to 100 scale, 0 is no effect, 100 is complete control)",[2],20
same,"Plant response rating, Rice (0 to 100 scale, 0 is no effect, 100 is complete control)",rice (Oryza sativa),0
same,Pigweed plant response rating,[3]; 125 g ai/ha,100
same,"Plant response rating, Pigweed",[3]; 500 g ai/ha,100
same,Barnyardgrass plant response rating,[4]; 125 g ai/ha,30
same,"Plant response rating, Barnyardgrass",[4]; 500 g ai/ha,80
same,"Plant response rating, Ragweed",[5]; 125 g ai/ha,30
same,"Plant response rating, Ragweed",[5]; 500 g ai/ha,60
same,"Plant response rating, Barnyardgrass",[6]; 125 g ai/ha,0
same,"Plant response rating, Barnyardgrass",[6]; 500 g ai/ha,60
same,"Plant response rating, Ducksalad (0 to 100 scale, 0 is no effect, 100 is complete control)",[7],20
same,"Plant response rating, Foxtail, Giant",[8]; 125 g ai/ha,0
same,"Plant response rating, Foxtail, Giant",[8]; 500 g ai/ha,20
same,"Ryegrass, Italian plant response rating",[9]; 125 g ai/ha,20
same,"Plant response rating, Ryegrass, Italian",[9]; 500 g ai/ha,100
same,"Plant response rating, Blackgrass",[10]; 125 g ai/ha,0
same,"Plant response rating, Blackgrass",[10]; 500 g ai/ha,10
same,"Plant response rating, Pigweed",[11]; 125 g ai/ha,80
same,"Plant response rating, Pigweed",[11]; 500 g ai/ha,100
same,"Plant response rating, Ryegrass, Italian",[12]; 125 g ai/ha,30
same,"Plant response rating, Ryegrass, Italian",[12]; 500 g ai/ha,0
same,"Plant response rating, Wheat",[13]; 125 g ai/ha,0
same,"Plant response rating, Wheat",[13]; 500 g ai/ha,0
same,"Plant response rating, Corn",corn (Zea mays); 125 g ai/ha,0
same,"Plant response rating, Corn",corn (Zea mays); 500 g ai/ha,10
same,Ragweed plant response rating,[14]; 125 g ai/ha,90
same,"Plant response rating, Ragweed",[14]; 500 g ai/ha,100
same,"Plant response rating, Galium",[15]; 125 g ai/ha,60
same,"Plant response rating, Galium",[15]; 500 g ai/ha,90
same,"Plant response rating, Sedge, Umbrella (0 to 100 scale, 0 is no effect, 100 is complete control)",[16],40
same,"Foxtail, Giant plant response rating",[17]; 125 g ai/ha,10
same,"Plant response rating, Foxtail, Giant",[17]; 500 g ai/ha,90
same,"Plant response rating, Kochia",kochia (Kochia scoparia) [18]; 125 g ai/ha,50
same,"Plant response rating, Kochia",kochia (Kochia scoparia) [18]; 500 g ai/ha,90
CC(Nc1nc(N)c(C(F)(F)F)c(C(F)(F)F)n1)C1Cc2ccccc2C1 (racemic) [Compound 69],Kochia plant response rating,kochia (Kochia scoparia) [1]; 125 g ai/ha,0
same,Kochia plant response rating,kochia (Kochia scoparia) [1]; 500 g ai/ha,70
same,"Plant response rating, Barnyardgrass (0 to 100 scale, 0 is no effect, 100 is complete control)",[2],0
same,"Plant response rating, Rice (0 to 100 scale, 0 is no effect, 100 is complete control)",rice (Oryza sativa),0
same,Pigweed plant response rating,[3]; 125 g ai/ha,0
same,Pigweed plant response rating,[3]; 500 g ai/ha,70
same,Barnyardgrass plant response rating,[4]; 125 g ai/ha,0
same,Barnyardgrass plant response rating,[4]; 500 g ai/ha,0
same,"Plant response rating, Ragweed",[5]; [19],0
same,"Plant response rating, Ragweed",[5]; [20],0
same,"Plant response rating, Barnyardgrass",[6]; [19],0
same,"Plant response rating, Barnyardgrass",[6]; [20],0
same,"Plant response rating, Ducksalad (0 to 100 scale, 0 is no effect, 100 is complete control)",[7],0
same,"Plant response rating, Foxtail, Giant",[8]; [19],0
same,"Plant response rating, Foxtail, Giant",[8]; [20],0
same,"Ryegrass, Italian plant response rating",[9]; 125 g ai/ha,0
same,"Ryegrass, Italian plant response rating",[9]; 500 g ai/ha,0
same,"Plant response rating, Blackgrass",[10]; [19],0
same,"Plant response rating, Blackgrass",[10]; [20],30
same,"Plant response rating, Pigweed",[11]; [19],20
same,"Plant response rating, Pigweed",[11]; [20],80
same,"Plant response rating, Ryegrass, Italian",[12]; [19],0
same,"Plant response rating, Ryegrass, Italian",[12]; [20],0
same,"Plant response rating, Wheat",[13]; [19],0
same,"Plant response rating, Wheat",[13]; [20],0
same,"Plant response rating, Corn",corn (Zea mays); [19],20
same,"Plant response rating, Corn",corn (Zea mays); [20],0
same,Ragweed plant response rating,[14]; 125 g ai/ha,0
same,Ragweed plant response rating,[14]; 500 g ai/ha,70
same,"Plant response rating, Galium",[15]; [19],0
same,"Plant response rating, Galium",[15]; [20],0
same,"Plant response rating, Sedge, Umbrella (0 to 100 scale, 0 is no effect, 100 is complete control)",[16],0
same,"Foxtail, Giant plant response rating",[17]; 125 g ai/ha,0
same,"Foxtail, Giant plant response rating",[17]; 500 g ai/ha,0
same,"Plant response rating, Kochia",kochia (Kochia scoparia) [18]; [19],30
same,"Plant response rating, Kochia",kochia (Kochia scoparia) [18]; [20],80
CC(C)[C@@H](Nc1ncc(C(F)(F)F)c(N)n1)c1cc2ccccc2s1 [Compound 50],Kochia plant response rating,kochia (Kochia scoparia) [1]; 125 g ai/ha,40
same,Kochia plant response rating,kochia (Kochia scoparia) [1]; 500 g ai/ha,60
same,"Plant response rating, Barnyardgrass (0 to 100 scale, 0 is no effect, 100 is complete control)",[2],0
same,"Plant response rating, Rice (0 to 100 scale, 0 is no effect, 100 is complete control)",rice (Oryza sativa),0
same,Pigweed plant response rating,[3]; 125 g ai/ha,0
same,Pigweed plant response rating,[3]; 500 g ai/ha,40
same,Barnyardgrass plant response rating,[4]; 125 g ai/ha,0
same,Barnyardgrass plant response rating,[4]; 500 g ai/ha,10
same,"Plant response rating, Ragweed",[5]; [19],0
same,Ragweed plant response rating,[5]; [21],30
same,"Plant response rating, Barnyardgrass",[6]; [19],0
same,Barnyardgrass plant response rating,[6]; [21],0
same,"Plant response rating, Ducksalad (0 to 100 scale, 0 is no effect, 100 is complete control)",[7],0
same,"Plant response rating, Foxtail, Giant",[8]; [19],0
same,"Foxtail, Giant plant response rating",[8]; [21],40
same,"Ryegrass, Italian plant response rating",[9]; 125 g ai/ha,0
same,"Ryegrass, Italian plant response rating",[9]; 500 g ai/ha,0
same,"Plant response rating, Blackgrass",[10]; [19],0
same,Blackgrass plant response rating,[10]; [21],0
same,"Plant response rating, Pigweed",[11]; [19],60
same,Pigweed plant response rating,[11]; [21],90
same,"Plant response rating, Ryegrass, Italian",[12]; [19],30
same,"Ryegrass, Italian plant response rating",[12]; [21],0
same,"Plant response rating, Wheat",[13]; [19],0
same,Wheat plant response rating,[13]; [21],0
same,"Plant response rating, Corn",corn (Zea mays); [19],0
same,Corn plant response rating,corn (Zea mays); [21],10
same,Ragweed plant response rating,[14]; 125 g ai/ha,0
same,Ragweed plant response rating,[14]; 500 g ai/ha,0
same,"Plant response rating, Galium",[15]; [19],10
same,Galium plant response rating,[15]; [21],20
same,"Plant response rating, Sedge, Umbrella (0 to 100 scale, 0 is no effect, 100 is complete control)",[16],0
same,"Foxtail, Giant plant response rating",[17]; 125 g ai/ha,0
same,"Foxtail, Giant plant response rating",[17]; 500 g ai/ha,10
same,"Plant response rating, Kochia",kochia (Kochia scoparia) [18]; [19],20
same,Kochia plant response rating,kochia (Kochia scoparia) [18]; [21],60
